Data published in PMC6656724 (Communications Biology, 2019).
Where “and” joins values, the source holds several entries; their conditions need not be identical. Identical values can stand only once. Like-named read-outs stand apart in the source and are kept apart here.

Experiments:
[1] = Rat brain penetration study; format: in vivo, male Han Wistar rats; settings: 1b 5 mg/kg i.v.; for In blood, prodrug 1b / In brain, prodrug 1b / Unbound brain, prodrug 1b / concentration at 5 min / concentration at 15 min / concentration at 30 min / concentration at 60 min: single rats; for In brain, prodrug 1b / Unbound brain, prodrug 1b: listed as prodrug 1b; for concentration at 5 min / concentration at 15 min / concentration at 30 min / concentration at 60 min: intravenous, 5 mg free base/kg
Method: Prodrug 1b was dosed as a bolus solution intravenously at 5 mg free base/kg (dose volume: 1 mL/kg; dose vehicle: 10% DMSO; 60% PEG400; 30% MilliQ H2O) to male Han Wistar rats (n = 12). At 5, 15, 30 and 60 min following intravenous bolus injection of prodrug 1b, […] (n = 3/timepoint) were placed under terminal anaesthesia with isofluorane. A blood sample was taken by cardiac puncture, the […] decapitated and the brain removed. Brain weight was noted and each brain homogenised with two volumes of methanol:water (1:1; 2 mL/g brain). Each blood sample was diluted with distilled water (1:2). Diluted blood and the brain homogenates were then stored frozen until preparation and analysis by UPLC-MS/MS, monitoring for prodrug 1b and production of inhibitor 1. For each rat at each timepoint for 1, the concentration in brain (ng/g) was divided by the concentration in blood (ng/mL) to give a brain:blood ratio. The mean value obtained was quoted.
A rapid and sensitive ultra-performance chromatography/tandem mass spectrometry (UPLC-MS/MS) method was developed and validated for the determination of inhibitor 1 and prodrug 1b (rat only). Chromatographic analysis was conducted on a Waters Acquity™ UPLC system. Chromatographic separation was performed with an Acquity™ UPLC BEH C18 column (50 × 2.1 mm, 1.7 µm, 130Å; Waters Corp.) maintained at 40 °C in a column oven. The mobile phase consisted of water with 0.01% formic acid and ACN with 0.01 % formic acid and it was delivered at a flow rate of 0.6 mL/min under gradient eluent conditions within an analysis cycle time of 3 min. The mass detection was conducted on a Waters Xevo™ TQs mass spectrometer equipped with a ScanWave™ technology. Quantitation of the analyte was performed in electrospray positive ionisation mode (ESI^+) using multiple reaction monitoring. The optimised fragmentation transition was m/z = 270.17 → 196.19 (mouse) or m/z = 270.17 → 223.76 (rat) for inhibitor 1 and m/z = 297.83 → 195.74 for prodrug 1b (rat).
Sample extraction for blood and brain homogenate was by protein precipitation (1:3 or 1:6) using ACN containing suitable internal standard. Extracts were vortexed followed by centrifugation (2800 rpm for 10 min). An aliquot of each supernatant was then diluted two-fold in distilled water ready for analysis by UPLC-MS/MS.
The weighted 1/x^2 calibration line was linear in the dynamic range of 1–5000 ng/mL for inhibitor 1 and 1–1000 ng/mL for prodrug 1b with a correlation coefficient (r^2) > 0.99 (inhibitor 1) or 0.98 (prodrug 1b). The quality control samples (QC) were prepared by using the same spiking scheme as the calibration samples and up to four different target concentration brain levels: 2 ng/mL (LQC), 40 ng/mL (MQC), 100 ng/mL (HQC) and 2000 ng/mL. Data collection, peak integration and calculations were performed using MassLynx software, version 2.1.

[2] = tested on: MDR1 MDCK cell lines; test: in vitro; format: in vitro ADME, canine; settings: MDR1 MDCK; listed as Inhibitor 1
[3] = tested on: wild type MDCK cell lines; test: in vitro; format: in vitro ADME, canine; settings: wild type MDCK; listed as Inhibitor 1
[4] = target: MDR1 (P-glycoprotein) (Homo sapiens, UniProt P08183); format: in vitro ADME; settings: from effective efflux ratio
MDR1 (P-glycoprotein), sequence (P08183 whole entry): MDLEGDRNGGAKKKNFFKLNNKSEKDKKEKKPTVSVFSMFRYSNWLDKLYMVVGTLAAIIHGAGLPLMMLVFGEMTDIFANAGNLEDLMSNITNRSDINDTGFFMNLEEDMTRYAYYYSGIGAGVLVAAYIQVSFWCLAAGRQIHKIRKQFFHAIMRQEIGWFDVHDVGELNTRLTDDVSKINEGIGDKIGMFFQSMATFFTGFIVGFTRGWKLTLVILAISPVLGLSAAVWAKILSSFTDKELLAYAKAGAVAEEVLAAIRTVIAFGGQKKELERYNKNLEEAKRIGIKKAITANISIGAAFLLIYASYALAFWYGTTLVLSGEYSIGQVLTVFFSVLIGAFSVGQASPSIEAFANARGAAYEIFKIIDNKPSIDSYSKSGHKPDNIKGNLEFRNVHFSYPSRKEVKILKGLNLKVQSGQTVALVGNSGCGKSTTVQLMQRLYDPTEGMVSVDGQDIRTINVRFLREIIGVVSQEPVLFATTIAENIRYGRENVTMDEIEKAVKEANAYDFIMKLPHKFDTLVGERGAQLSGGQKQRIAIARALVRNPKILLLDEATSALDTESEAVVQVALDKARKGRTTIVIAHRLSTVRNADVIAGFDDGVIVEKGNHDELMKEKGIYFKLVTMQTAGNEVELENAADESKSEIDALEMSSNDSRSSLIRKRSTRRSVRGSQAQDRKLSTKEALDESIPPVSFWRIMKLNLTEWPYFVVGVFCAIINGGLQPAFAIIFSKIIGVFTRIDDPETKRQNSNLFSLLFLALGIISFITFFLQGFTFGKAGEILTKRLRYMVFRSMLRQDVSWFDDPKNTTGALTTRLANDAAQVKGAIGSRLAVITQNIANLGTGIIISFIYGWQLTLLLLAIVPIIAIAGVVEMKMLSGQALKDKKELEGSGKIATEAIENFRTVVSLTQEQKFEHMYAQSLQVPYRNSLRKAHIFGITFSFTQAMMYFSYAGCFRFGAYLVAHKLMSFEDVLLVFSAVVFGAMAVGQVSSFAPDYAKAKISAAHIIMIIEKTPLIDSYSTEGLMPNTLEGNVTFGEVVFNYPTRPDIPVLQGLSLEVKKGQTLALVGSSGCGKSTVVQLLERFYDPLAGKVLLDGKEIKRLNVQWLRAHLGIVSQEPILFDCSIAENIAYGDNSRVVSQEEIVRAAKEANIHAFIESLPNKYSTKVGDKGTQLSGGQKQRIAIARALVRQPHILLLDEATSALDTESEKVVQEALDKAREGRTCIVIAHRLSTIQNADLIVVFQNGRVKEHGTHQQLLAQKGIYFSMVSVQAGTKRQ
Method: internal standard at each timepoint. […]
including an analytical internal standard.
Apparent permeability (Papp) values were determined from the relationship: […]
Where V is the volume of each Transwell compartment (apical 125 µL, basolateral 600 µL), and concentrations are the relative MS responses for compound (normalized to internal standard) in the donor chamber before incubation and acceptor chamber at the end of the incubation. Area = area of cells exposed for drug transfer (0.33 cm 2).
Efflux ratios (Papp B>A / Papp A>B) were calculated for each compound from the […]
MDR1-MDCK cell line has been engineered to overexpress the efflux transporter, MDR1 (P-glycoprotein), and a finding of good permeability B>A, but poor […]
order to confirm the involvement of MDR1 in any efflux seen, an “ef fective efflux ratio” (EER) was calculated by comparing compound efflux ratios (ER) in the two cell types, i.e. EER = ER (MDR1-MDCK)/ ER (wild-type MDCK). This ratio illustrates the effect of the over-expressed MDR1 normalised for the background movement of compound through the wild-type cells. […]
Compound recovery from the wells was determined from MS responses (normalized to internal standard) in donor and acceptor chambers at the end of incubation compared to response in the donor chamber pre-incubation. […]

With `CCOC(=O)CN1C(=O)COc2cc(C)c(Cl)c(C)c21` [1b] the “In blood, prodrug 1b” value ([1]; 5 min) was no more than 3 ng/mL, the “In brain, prodrug 1b” value ([1]; 5 min) was 2623 ng/g and 2264 ng/g and the “Unbound brain, prodrug 1b” value ([1]; 5 min) was 42 ng/g and 36 ng/g. The “In blood, prodrug 1b” value ([1]; 15 min) was no more than 3 ng/mL, the “In brain, prodrug 1b” value ([1]; 15 min) was 715 ng/g and 791 ng/g and the “Unbound brain, prodrug 1b” value ([1]; 15 min) was 11 ng/g and 13 ng/g. The “In blood, prodrug 1b” value ([1]; 30 min) was no more than 3 ng/mL, the “In brain, prodrug 1b” value ([1]; 30 min) was 203 ng/g and the “Unbound brain, prodrug 1b” value ([1]; 30 min) was 3 ng/g. The “In blood, prodrug 1b” value ([1]; 60 min) was no more than 3 ng/mL, the concentration at 5 min ([1]; male, Han Wistar, brain (unbound), 5 min, read-out: Unbound brain, prodrug 1b) was 38 ng/g and the concentration at 15 min ([1]; male, Han Wistar, brain (unbound), 15 min, read-out: Unbound brain, prodrug 1b) was 13 ng/g. It also gave a concentration at 30 min ([1]; male, Han Wistar, brain (unbound), 30 min, read-out: Unbound brain, prodrug 1b) of 4 ng/g, a concentration at 5 min ([1]; male, Han Wistar, brain, 5 min, read-out: In brain, prodrug 1b) of 2350 ng/g and a concentration at 15 min ([1]; male, Han Wistar, brain, 15 min, read-out: In brain, prodrug 1b) of 829 ng/g. The concentration at 30 min ([1]; male, Han Wistar, brain, 30 min, read-out: In brain, prodrug 1b) was 240 ng/g, the concentration at 60 min ([1]; male, Han Wistar, brain, 60 min, read-out: In brain, prodrug 1b) was 62 ng/g and the concentration at 60 min ([1]; male, Han Wistar, brain, 60 min, read-out: Unbound brain, prodrug 1b) was 1 ng/g. For the same molecule, the Tmax ([1]; male, Han Wistar, brain, iv, read-out: Time of maximal concentration of 1b in the brain (converted)) was 5 min, the concentration at 5 min ([1]; male, Han Wistar, whole blood, 5 min, read-out: In blood, prodrug 1b) was no more than 3 ng/mL and the concentration at 15 min ([1]; male, Han Wistar, whole blood, 15 min, read-out: In blood, prodrug 1b) was no more than 3 ng/mL. It also gave a concentration at 30 min ([1]; male, Han Wistar, whole blood, 30 min, read-out: In blood, prodrug 1b) of no more than 3 ng/mL and a concentration at 60 min ([1]; male, Han Wistar, whole blood, 60 min, read-out: In blood, prodrug 1b) of no more than 3 ng/mL.
In the case of `Cc1cc2c(c(C)c1Cl)N(CC(=O)O)C(=O)CO2` [compound 1, (6-chloro-5,7-dimethyl-3-oxo-2,3-dihydro-4H-1,4-benzoxazin-4-yl) acetic acid], the “Papp A>B Mean” value [2] is reported as ~ 15 x 10-6 cm/sec, the “Papp A>B Mean” value [3] is reported as ~ 15 x 10-6 cm/sec and the “Substrate for P-glycoprotein” value [4] is reported as “not a substrate”.
